We go through eleven compounds from US20230227466A1, “SUBSTITUTED THIENOPYRIMIDINES THAT INTERACT WITH THE RAS SUPERFAMILY FOR THE TREATMENT OF CANCERS, INFLAMMATORY DISEASES, RASOPATHIES, AND FIBROTIC DISEASE” (SHY Therapeutics, LLC, priority 2020, published 2023).

The target of one assay is T1, KRas G12C mutant (Homo sapiens, UniProt P01116, G12C).
T1 construct: made in house
The assay is described as follows: Ras GTP binding domain inhibition assay (labeled-GTP competition, cell-free). The text has this:
(§1) This is a competitive binding assay. It involves the immobilization of a protein on solid phase, interaction with a small molecule drug candidate, and then competitive binding with a labeled native GTP or GDP ligand.
(§2) In theory, the assay is suitable for use with any GTP or GDP binding protein.
(§3) The following method was developed as specific assay for the following proteins: KRas wild type, KRas Q61H mutant, KRas G12C mutant, KRas G12D mutant, Rac-1, and Rho-A.
(§4) The small GTPases proteins: KRas wild type. KRas Q61H mutant, KRas G12C mutant, KRas G12D mutants, Rac-1, and Rho-A were expressed as His-tagged proteins. In addition, the Guanosine nucleotide Exchange Factor (GEF) Sos protein (residues 556-1049) was expressed as a His-tagged protein. In cells, the guanine nucleotide exchange factor Sos protein promotes activation of Ras proteins by stimulating an exchange of GDP for GTP. The inclusion of Sos to the Ras GTP binding domain inhibition assay may be considered as an alternative representation of physiological cellular conditions for evaluating the inhibitory activity of some of the tested small molecules.
(§5) For the assay, all purified small GTPases proteins were diluted in Buffer-I or Buffer-II to a final concentration of 10-30 μg/mL. 200 μL of each diluted protein was added to a nickel-coated 96-well plate and incubated overnight at 4° C. Then the protein solution was discarded and 200 μL of Buffer-I or Buffer-II was added to each well in the presence of 1% DMSO. Compounds to be tested were added to the protein-coated wells at final concentration of 20 μM, and incubated for 3 hours at room temperature with and without 10-30 μg/mL of Sos added to the final hour of the incubation. When performing IC50 measurements a serial dilution of all tested concentrations was added. Then Cy3-GTP or Cy5-GTP was added to each well to a final concentration of 100 nM. The labeled GTP was incubated for 45 minutes at room temperature. Following GTP incubation, wells were washed 3× in Buffer-I or Buffer-II and 200 μL of Buffer-I or Buffer-II was added to each well. Following washes, the amount of bound labeled-GTP was measured using a SpectraMax M3 (Molecular Devices).

The target of another assay is T2, KRas G12D mutant (Homo sapiens, UniProt P01116, G12D).
T2 construct: made in house
The description is as above.
Description: as §1, §2, §3, §4, §5

The target in the next assay is T3, KRas Q61H mutant (Homo sapiens, UniProt P01116, Q61H).
T3 construct: made in house
The description is as above.
Description: as §1, §2, §3, §4, §5

Assay [1] deals with MIA-PaCa-2 pancreatic cancer cell line (KRAS G12C). The assay is described as follows: Cell proliferation assay (CellTiter 96 Aqueous One). The note with it: Homo sapiens; for IC50: MIA PaCa-2, MIA PaCa-2; for inhibition at 10 µM: MIA PaCa-2, read-out: % inh cell proliferation (10 μM) in MIA PaCa-2. Format: cell-based. The protocol: Cell lines: Human tumor-derived cell lines were purchased from American Type Culture Collection. Human tumor-derived pancreatic cancer cell line MIA-PACA2 (having a KRAS G12C mutation) and Panc-1 (having a KRAS G12D mutation), and Human non-small cell lung cancer (NSCLC) cell line A549 (having a KRAS G12S mutation) were grown in complete DMEM-High Glucose. Human colon cancer cell line SW-620 (having a KRAS G12V mutation) was grown in RPMI. All cell lines were supplemented with penicillin (100 U/mL), streptomycin (100 μg/mL), and 10% heat-inactivated FBS at 37° C. in a humidified incubator with 5% CO2.
Method: Cells were plated at 2000 to 5000 cells/well density in 96-wells plate and cultured overnight. Small molecules to be tested were added to the cells in the final concentration of 10 μM in the presence of 0.3% DMSO and 10% FBS, and incubated for 2-4 days at 37° C. in a humidified incubator with 5% CO2. For IC50 value determination, serial dilutions of compounds were added to cells under the same conditions.
Assay: At the end of the incubation period, cell viability was measured using the CellTiter 96® Aqueous One Solution Cell Proliferation Assay according to manufacturer specifications (Promega, Madison, Wis.). The percentage of small molecules inhibition of cellular proliferation was calculated from raw data.

Where [2] appears, read: with SOS, read-out: KRas G12C mutant + SOS: % inh.
The mark [3] stands for this setting: without SOS, read-out: KRas G12C mutant: % inh.
Setting [4] is: with SOS, read-out: KRas G12D mutant + SOS: % inh.
Where [5] appears, read: without SOS, read-out: KRas G12D mutant: % inh.
Where [6] appears, read: with SOS, read-out: KRas Q61H mutant + SOS: % inh.
Setting [7] is: without SOS, read-out: KRas Q61H mutant: % inh.

pIC50: −log10 of the molar value. Where two headings read alike, the source gives them in different places.

Broadly, the pIC50 is −log10 of the IC50, conventionally taken in molar units. As usually defined, the IC50 is the concentration that gives 50% inhibition. Read a high IC50 as weaker potency. For the compound `COCCn1ccnc1-c1nc(N[C@@H]2CC[C@H](OC)C2)c2c(-c3ccccc3)c(-c3ccn(C)n3)sc2n1` (racemic) [Compound 6, Rac-N-((1R,3S)-3-methoxycyclopentyl)-2-(1-(2-methoxyethyl)-1H-imidazol-2-yl)-6-(1-methyl-1H-pyrazol-3-yl)-5-phenylthieno[2,3-d]pyrimidin-4-amine], the inhibition at 20 µM on KRas G12C mutant (setting [2]), at KRas G12C mutant (setting [3]), on KRas G12D mutant (setting [4]), on KRas G12D mutant (setting [5]), on KRas Q61H mutant (setting [6]) and at KRas Q61H mutant (setting [7]) was 76 to 100% in each case. At KRas Q61H mutant (with SOS), the pIC50 is 5.30 to 6.00. The compound also returned an IC50 in assay [1] of 1 to 4.99 µM. The inhibition at 10 µM in assay [1] fell in the range of 76 to 100%.

With `COCCn1ccnc1-c1nc(N[C@@H]2CC[C@H](OC)C2)c2ccsc2n1` (racemic) [Compound 8, Rac-N-((1R,3S)-3-methoxycyclopentyl)-2-(1-(2-methoxyethyl)-1H-imidazol-2-yl)thieno[2,3-d]pyrimidin-4-amine], the inhibition at 20 µM on KRas G12C mutant (setting [2]), at KRas G12C mutant (setting [3]), at KRas G12D mutant (setting [4]), on KRas G12D mutant (setting [5]), at KRas Q61H mutant (setting [6]) and at KRas Q61H mutant (setting [7]) was 76 to 100% each time. In addition, on KRas Q61H mutant (with SOS), the pIC50 was 5.30 to 6.00. This compound yielded an IC50 in assay [1] greater than 10 µM. Besides, the inhibition at 10 µM in assay [1] is 26 to 50%.

With `CO[C@H]1CC[C@@H](Nc2nc(-c3nccn3C)nc3sccc23)C1` (racemic) [Compound 10, Rac-N-((1R,3S)-3-methoxycyclopentyl)-2-(1-methyl-1H-imidazol-2-yl)thieno[2,3-d]pyrimidin-4-amine], the inhibition at 20 µM at KRas G12C mutant (setting [2]) was 76 to 100%; at KRas G12C mutant (setting [3]) it was 76 to 100%; on KRas G12D mutant (setting [4]), 51 to 75%; at KRas G12D mutant (setting [5]), 51 to 75%; at KRas Q61H mutant (setting [6]), 76 to 100%; at KRas Q61H mutant (setting [7]) it was 51 to 75%. In addition, the negative-log IC50 (pIC50) at KRas Q61H mutant (with SOS) is 5.00 to 5.30. The compound also displayed an IC50 in assay [1] greater than 10 µM. The inhibition at 10 µM in assay [1] lay within 26 to 50%.

With `CO[C@H]1CC[C@@H](Nc2nc(C(N)=O)nc3sccc23)C1` (racemic) [Compound 11, Rac-4-(((1R,3S)-3-methoxycyclopentyl)amino)thieno[2,3-d]pyrimidine-2-carboxamide], the inhibition at 20 µM at KRas G12C mutant (setting [2]) is 1 to 25%; at KRas G12C mutant (setting [3]) it was 1 to 25%; on KRas G12D mutant (setting [4]), 0%; on KRas G12D mutant (setting [5]) it was 1 to 25%; on KRas Q61H mutant (setting [6]), 0%; on KRas Q61H mutant (setting [7]) it was 0%. For the same compound, the pIC50 on KRas Q61H mutant (with SOS) is less than 5.00. Moreover, in assay [1], the IC50 is greater than 10 µM. The inhibition at 10 µM in assay [1] was in the range of 1 to 25%.

On to `CO[C@@H]1CC[C@H]1CNc1nc(-c2nccn2C)nc2sc(-c3ccn(C(C)C)n3)c(C)c12` (racemic) [Compound 61, rac-6-(1-Isopropyl-1H-pyrazol-3-yl)-N-(((1S,2R)-2-methoxycyclobutyl)methyl)-5-methyl-2-(1-methyl-1H-imidazol-2-yl)thieno[2,3-d]pyrimidin-4-amine], for which the inhibition at 20 µM at KRas G12C mutant (setting [2]) fell in the range of 76 to 100%; at KRas G12C mutant (setting [3]), 51 to 75%; at KRas Q61H mutant (setting [6]), 76 to 100%; at KRas Q61H mutant (setting [7]), 76 to 100%. Also, in assay [1], the half-inhibitory concentration (IC50) was less than 1 µM. Also, the inhibition at 10 µM in assay [1] fell in the range of 76 to 100%.

`CO[C@H]1CC[C@@H](Nc2nc(-c3nccn3C)nc3sc(-c4ccn(C(C)C)n4)c(C(F)(F)F)c23)C1` (racemic) [Compound 73, Rac-6-(1-isopropyl-1H-pyrazol-3-yl)-N-((1R,3S)-3-methoxycyclopentyl)-2-(1-methyl-1H-imidazol-2-yl)-5-(trifluoromethyl)thieno[2,3-d]pyrimidin-4-amine]: the inhibition at 20 µM at KRas G12C mutant (setting [2]) lay in the range of 76 to 100%; at KRas G12C mutant (setting [3]), 1 to 25%; on KRas Q61H mutant (setting [6]) it was 51 to 75%; on KRas Q61H mutant (setting [7]), 51 to 75%. The same compound showed an IC50 in assay [1] of 1 to 4.99 µM. The inhibition at 10 µM in assay [1] is 76 to 100%.

For the compound `COCC1CCN(c2nc(-c3nccn3C)nc3sc(-c4ccn(C(C)C)n4)c(C(F)(F)F)c23)C1` (racemic) [Compound 74, Rac-6-(1-Isopropyl-1H-pyrazol-3-yl)-4-(3-(methoxymethyl)pyrrolidin-1-yl)-2-(1-methyl-1H-imidazol-2-yl)-5-(trifluoromethyl)thieno[2,3-d]pyrimidine], the inhibition at 20 µM on KRas G12C mutant (setting [2]) was in the range of 51 to 75%; at KRas G12C mutant (setting [3]) it was 1 to 25%; on KRas Q61H mutant (setting [6]) it was 51 to 75%; at KRas Q61H mutant (setting [7]), 51 to 75%. In assay [1], this compound displayed an IC50 of less than 1 µM. Also, the inhibition at 10 µM in assay [1] lay in the range of 76 to 100%.

For the compound `COC1CCCN(c2nc(-c3nccn3C)nc3sc(-c4ccn(C(C)C)n4)c(C(F)(F)F)c23)C1` (racemic) [Compound 75, Rac-6-(1-Isopropyl-1H-pyrazol-3-yl)-4-(3-methoxypiperidin-1-yl)-2-(1-methyl-1H-imidazol-2-yl)-5-(trifluoromethyl)thieno[2,3-d]pyrimidine], the inhibition at 20 µM was 51 to 75% on KRas G12C mutant (setting [2]), 26 to 50% on KRas G12C mutant (setting [3]), 26 to 50% at KRas Q61H mutant (setting [6]) and 51 to 75% at KRas Q61H mutant (setting [7]). Also, the IC50 in assay [1] fell in the range of 5 to 10 µM. Besides, in assay [1], the inhibition at 10 µM lay in the range of 76 to 100%.

As to `Cc1c(-c2ccn(C(C)C)n2)sc2nc(-c3nccn3C)nc(NCc3c[nH]cn3)c12` [Compound 59, N-((1H-Imidazol-4-yl)methyl)-6-(1-isopropyl-1H-pyrazol-3-yl)-5-methyl-2-(1-methyl-1H-imidazol-2-yl)thieno[2,3-d]pyrimidin-4-amine], the inhibition at 20 µM is 76 to 100% on KRas G12C mutant (setting [2]), 51 to 75% on KRas G12C mutant (setting [3]), 76 to 100% at KRas Q61H mutant (setting [6]) and 51 to 75% on KRas Q61H mutant (setting [7]). For the same compound, the IC50 in assay [1] was in the range of 5 to 10 µM. The inhibition at 10 µM in assay [1] is 51 to 75%.

As for `Cc1c(-c2ccn(C(C)C)n2)sc2nc(-c3nccn3C)nc(NCc3n[nH]c(=O)n3C)c12` [Compound 60, 5-(((6-(1-Isopropyl-1H-pyrazol-3-yl)-5-methyl-2-(1-methyl-1H-imidazol-2-yl)thieno[2,3-d]pyrimidin-4-yl)amino)methyl)-4-methyl-2,4-dihydro-3H-1,2,4-triazol-3-one], the inhibition at 20 µM lay within 51 to 75% on KRas G12C mutant (setting [2]), 26 to 50% on KRas G12C mutant (setting [3]), 51 to 75% at KRas Q61H mutant (setting [6]) and 51 to 75% on KRas Q61H mutant (setting [7]). In addition, in assay [1], the IC50 was greater than 10 µM. In addition, the inhibition at 10 µM in assay [1] lay in the range of 1 to 25%.

Regarding `COc1cccc(Nc2nc(-c3nccn3C)nc3sc(-c4ccn(C(C)C)n4)c(C)c23)c1` [Compound 64, 6-(1-Isopropyl-1H-pyrazol-3-yl)-N-(3-methoxyphenyl)-5-methyl-2-(1-methyl-1H-imidazol-2-yl)thieno[2,3-d]pyrimidin-4-amine], the inhibition at 20 µM on KRas G12C mutant (setting [2]) lay within 76 to 100%; on KRas G12C mutant (setting [3]), 26 to 50%; at KRas Q61H mutant (setting [6]), 76 to 100%; at KRas Q61H mutant (setting [7]), 26 to 50%. The same compound showed an IC50 in assay [1] of 5 to 10 µM. The inhibition at 10 µM in assay [1] lay in the range of 76 to 100%.
